Test: Host toxicity monitoring in the CWR22Rv1 xenograft study (body weight, health status)
Type: in vivo, male NOD SCID mice
Experimental: Following the in vitro studies and determination of the PK parameters, we then investigated the relative efficacy. Gal and the NGGAs in vivo using difficult-to-treat castration-resistant CWR22Rv1 xenografts. Given the enhanced IP and PO PK parameters of VNPP414 and VNPP433-3β over Gal, we decided to use lower doses of the new analogs compared to the previous Gal doses (200 mg/kg, IP/PO). Gal (200 mg/kg) served as positive control, while ENZ (25 mg/kg) administered PO was used as negative control. Male NOD SCID mice bearing CWR22Rv1 tumors were treated with vehicle, ENZ, Gal, VNPP414, and VNPP433-3β for 16 days as described in the Methods and Materials Section. […] In contrast, Gal and the NGGAs caused statistically significant tumor growth inhibition (TGI). […] It is notable that VNPP433-3β (at 7.5- and 15-fold lower molar doses) and VNPP414 (at 4-fold lower molar dose) are more efficacious than Gal. In general, no host toxicities were observed, as monitored by changes in animal body weight (Figure 7C). […]

For C[C@]12CC[C@H](n3ccnc3)CC1=CCC1C2CC[C@]2(C)C(n3cnc4ccccc43)=CCC12 (stereo partly drawn) [VNPP433-3β], the mortality (30 mg/kg PO once daily group, 5 mice) was “one mouse died on day 16” and the “host toxicity, monitored by changes in animal body weight” value (CWR22Rv1 tumor-bearing mice, PO, 16 days) was “no apparent host toxicity”.
